In patent publication US20220089629A1, “AMORPHOUS SIALYLATED OLIGOSACCHARIDES” (GLYCOM A/S, priority 2019, published 2022):
Structures can show the parent of a compound that is named as a salt. Values belong to the molecule of their own block, whether it stands above or below them.

Key:
[1] = pH measurement of aqueous solutions by pH-meter; format: physicochemical; settings: for pH of aqueous stock solution: before pH adjustment
Description: When a pH value is referred to, it is measured by a pH-meter conventionally.
3′-SL Na-salt was made by bacterial fermentation and isolated in accordance with e.g. WO 2017/152918. An aqueous stock solution was made the concentration of which was 5.3 g/100 g, pH: 4.8.
Series A: a part of the above aqueous stock solution was adjusted to pH of 3.6 by addition of 1 M HCl-solution. The so-obtained solution was freeze-dried to give a white amorphous powder. The pH of its 5 w/w % solution was 3.9.
6′-SL Na-salt was made by bacterial fermentation and isolated in accordance with e.g. US 2018/0002363. An aqueous stock solution was made the concentration of which was 9.1 g/100 g, pH: 5.4.
Series A: a part of the above aqueous stock solution was adjusted to pH of 3.1 by addition of 1 M HCl-solution. The so-obtained solution was freeze-dried to give a white amorphous powder. The pH of its 5 w/w % solution was 3.5.

[2] = Forced heat stability test of freeze-dried amorphous 3′-SL samples, analysed by HPAEC-PAD; format: physicochemical
Description: Seven by one gram from each series, separately, was put into 4 ml glass vials and closed with screw lid containing teflon inliner (21 samples altogether). Three samples from each series were put into a 60° C. oven, and another three samples from each series were put into a 80° C. oven. One samples from each series was removed from the ovens after a time indicated below and kept in a freezer until analysis. The t=0 samples (one sample from each series) were kept in freezer during the entire time of the test.
The samples were analysed together after the longest incubation had finished by HPAEC-PAD on Carbopac PA-200 (3×250 mm) column using isocratic 75 mM NaOH+37.5 mM NaOAc eluent.

Compound: CC(=O)N[C@H]1[C@H]([C@H](O)[C@H](O)CO)O[C@@](O[C@H]2[C@@H](O)[C@@H](CO)O[C@@H](O[C@H]3[C@H](O)[C@@H](O)C(O)O[C@@H]3CO)[C@@H]2O)(C(=O)O)C[C@@H]1O (stereo partly drawn) [3′-SL Na-salt, 3′-sialyllactose]
pH of aqueous stock solution ([1]; concentration 5.3 g/100 g): 4.8

Compound: CC(=O)N[C@H]1[C@H]([C@H](O)[C@H](O)CO)O[C@@](OC[C@H]2O[C@@H](O[C@H]3[C@H](O)[C@@H](O)[C@H](O)O[C@@H]3CO)[C@H](O)[C@@H](O)[C@H]2O)(C(=O)O)C[C@@H]1O [6′-SL Na-salt, 6′-sialyllactose]
pH of aqueous stock solution ([1]; concentration 9.1 g/100 g): 5.4

Compound: CC(=O)N[C@H]1[C@H]([C@H](O)[C@H](O)CO)O[C@@](O[C@H]2[C@@H](O)[C@@H](CO)O[C@@H](O[C@H]3[C@H](O)[C@@H](O)C(O)O[C@@H]3CO)[C@@H]2O)(C(=O)O)C[C@@H]1O (stereo partly drawn) [Example 1 Series A, 3′-sialyllactose]
content of 3′-O-sialyl-lactulose (ketose rearranged derivative of 3′-SL) in the sample ([2]; 60° C., 2 weeks, solid in closed vial, listed as sample A): 1.66 area % | content of 3′-O-sialyl-lactulose (ketose rearranged derivative of 3′-SL) in the sample ([2]; 60° C., 4 weeks, solid in closed vial, listed as sample A): 2.12 area % | content of 3′-O-sialyl-lactulose (ketose rearranged derivative of 3′-SL) in the sample ([2]; 60° C., 6 weeks, solid in closed vial, listed as sample A): 1.96 area % | content of 3′-O-sialyl-lactulose (ketose rearranged derivative of 3′-SL) in the sample ([2]; 80° C., 1 weeks, solid in closed vial, listed as sample A): 1.91 area % | content of 3′-O-sialyl-lactulose (ketose rearranged derivative of 3′-SL) in the sample ([2]; 80° C., 2 weeks, solid in closed vial, listed as sample A): 1.97 area % | content of 3′-O-sialyl-lactulose (ketose rearranged derivative of 3′-SL) in the sample ([2]; 80° C., 4 weeks, solid in closed vial, listed as sample A): 2.24 area % | content of 3′-O-sialyl-lactulose (ketose rearranged derivative of 3′-SL) in the sample ([2]; t = 0, kept in freezer, listed as sample A): 1.75 area %

Second part, the molecule after the results:

content of 3′-O-sialyl-lactulose (ketose rearranged derivative of 3′-SL) in the sample ([2]; 60° C., 2 weeks, solid in closed vial, listed as sample B): 2.16 area % | content of 3′-O-sialyl-lactulose (ketose rearranged derivative of 3′-SL) in the sample ([2]; 60° C., 4 weeks, solid in closed vial, listed as sample B): 2.16 area % | content of 3′-O-sialyl-lactulose (ketose rearranged derivative of 3′-SL) in the sample ([2]; 60° C., 6 weeks, solid in closed vial, listed as sample B): 2.31 area % | content of 3′-O-sialyl-lactulose (ketose rearranged derivative of 3′-SL) in the sample ([2]; 80° C., 1 weeks, solid in closed vial, listed as sample B): 2.34 area % | content of 3′-O-sialyl-lactulose (ketose rearranged derivative of 3′-SL) in the sample ([2]; 80° C., 2 weeks, solid in closed vial, listed as sample B): 2.39 area % | content of 3′-O-sialyl-lactulose (ketose rearranged derivative of 3′-SL) in the sample ([2]; 80° C., 4 weeks, solid in closed vial, listed as sample B): 2.88 area % | content of 3′-O-sialyl-lactulose (ketose rearranged derivative of 3′-SL) in the sample ([2]; t = 0, kept in freezer, listed as sample B): 1.77 area %
Compound: CC(=O)N[C@H]1[C@H]([C@H](O)[C@H](O)CO)O[C@@](O[C@H]2[C@@H](O)[C@@H](CO)O[C@@H](O[C@H]3[C@H](O)[C@@H](O)C(O)O[C@@H]3CO)[C@@H]2O)(C(=O)O)C[C@@H]1O (stereo partly drawn) [Example 1 Series B, 3′-sialyllactose]

content of 3′-O-sialyl-lactulose (ketose rearranged derivative of 3′-SL) in the sample ([2]; 60° C., 2 weeks, solid in closed vial, listed as sample C): 2.67 area % | content of 3′-O-sialyl-lactulose (ketose rearranged derivative of 3′-SL) in the sample ([2]; 60° C., 4 weeks, solid in closed vial, listed as sample C): 2.96 area % | content of 3′-O-sialyl-lactulose (ketose rearranged derivative of 3′-SL) in the sample ([2]; 60° C., 6 weeks, solid in closed vial, listed as sample C): 3.03 area % | content of 3′-O-sialyl-lactulose (ketose rearranged derivative of 3′-SL) in the sample ([2]; 80° C., 1 weeks, solid in closed vial, listed as sample C): 2.95 area % | content of 3′-O-sialyl-lactulose (ketose rearranged derivative of 3′-SL) in the sample ([2]; 80° C., 2 weeks, solid in closed vial, listed as sample C): 3.38 area % | content of 3′-O-sialyl-lactulose (ketose rearranged derivative of 3′-SL) in the sample ([2]; 80° C., 4 weeks, solid in closed vial, listed as sample C): 4.61 area % | content of 3′-O-sialyl-lactulose (ketose rearranged derivative of 3′-SL) in the sample ([2]; t = 0, kept in freezer, listed as sample C): 1.81 area %
Compound: CC(=O)N[C@H]1[C@H]([C@H](O)[C@H](O)CO)O[C@@](O[C@H]2[C@@H](O)[C@@H](CO)O[C@@H](O[C@H]3[C@H](O)[C@@H](O)C(O)O[C@@H]3CO)[C@@H]2O)(C(=O)O)C[C@@H]1O (stereo partly drawn) [Example 1 Series C, 3′-sialyllactose]

pH of the 5 w/w % solution of the freeze-dried amorphous powder ([1]; 5 w/w % aqueous solution after freeze-drying): 6.2
Compound: CC(=O)N[C@H]1[C@H]([C@H](O)[C@H](O)CO)O[C@@](OC[C@H]2O[C@@H](O[C@H]3[C@H](O)[C@@H](O)[C@H](O)O[C@@H]3CO)[C@H](O)[C@@H](O)[C@H]2O)(C(=O)O)C[C@@H]1O [Example 2 Series D, 6′-sialyllactose]
